# Assay results taken from ChEMBL document CHEMBL1629484, “1,2-diamino-ethane-substituted-6,7,8,9-tetrahydro-5H-pyrimido[4,5-d]azepines as TRPV1 antagonists with improved properties” (Bioorg Med Chem Lett, 2010).
# Biological target: Transient receptor potential cation channel subfamily V member 1 (Rattus norvegicus, UniProt O35433)
# Assay: Antagonist activity at rat TRPV1 expressed in HEK293 cells assessed as inhibition of capsaicin-induced intracellular Ca2+ level by FLIPR assay
# Type: functional, cell-based
# Chain of Transient receptor potential cation channel subfamily V member 1 (Rattus norvegicus, UniProt O35433) (O35433 whole entry): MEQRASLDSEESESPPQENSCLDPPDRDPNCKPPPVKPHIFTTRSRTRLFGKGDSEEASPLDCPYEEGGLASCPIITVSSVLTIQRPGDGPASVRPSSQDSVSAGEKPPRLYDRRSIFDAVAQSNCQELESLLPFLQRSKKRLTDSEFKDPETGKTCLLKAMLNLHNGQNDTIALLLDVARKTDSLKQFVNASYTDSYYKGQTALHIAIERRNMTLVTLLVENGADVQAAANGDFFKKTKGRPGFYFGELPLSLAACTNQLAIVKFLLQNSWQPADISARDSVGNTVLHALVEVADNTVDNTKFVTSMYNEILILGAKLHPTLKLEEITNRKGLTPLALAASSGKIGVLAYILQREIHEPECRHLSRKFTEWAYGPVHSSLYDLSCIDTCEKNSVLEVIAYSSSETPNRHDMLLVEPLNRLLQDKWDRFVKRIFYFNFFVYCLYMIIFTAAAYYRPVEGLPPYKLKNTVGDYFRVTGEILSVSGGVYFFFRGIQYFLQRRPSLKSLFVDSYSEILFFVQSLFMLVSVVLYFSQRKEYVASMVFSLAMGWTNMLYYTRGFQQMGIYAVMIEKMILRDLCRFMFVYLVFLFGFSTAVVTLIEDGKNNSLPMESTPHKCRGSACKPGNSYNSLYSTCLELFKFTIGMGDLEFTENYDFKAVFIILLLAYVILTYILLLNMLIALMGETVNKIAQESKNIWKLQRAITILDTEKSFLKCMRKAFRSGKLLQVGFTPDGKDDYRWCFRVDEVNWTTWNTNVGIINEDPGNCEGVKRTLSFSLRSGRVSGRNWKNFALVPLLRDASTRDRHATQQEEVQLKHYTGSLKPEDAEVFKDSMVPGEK
row,Compound,IC50 [nM]
1,CN1CCCC(Nc2nc3c(c(Nc4ccc(C(F)(F)F)cc4)n2)CCN(c2ncccc2C(F)(F)F)CC3)C1 (stereo not drawn),> 5000
2,CN(c1nc2c(c(Nc3ccc(C(F)(F)F)cc3)n1)CCN(c1ncccc1C(F)(F)F)CC2)C1CCCN(C(=O)OC(C)(C)C)C1 (stereo not drawn),97
3,CCC(CC)N1CCN(c2nc3c(c(Nc4ccc(C(F)(F)F)cc4)n2)CCN(c2ncccc2C(F)(F)F)CC3)CC1,185
4,CC(=O)NC1CCN(c2nc3c(c(Nc4ccc(C(F)(F)F)cc4)n2)CCN(c2ncccc2C(F)(F)F)CC3)C1 (stereo not drawn),410
5,OCCN1CCN(c2nc3c(c(Nc4ccc(C(F)(F)F)cc4)n2)CCN(c2ncccc2C(F)(F)F)CC3)CC1,1160
6,FC(F)(F)c1ccc(Nc2nc(NCC3CCCCN3)nc3c2CCN(c2ncccc2C(F)(F)F)CC3)cc1 (stereo not drawn),> 5000
7,CC(C)(C)OC(=O)N1CCCC(Nc2nc3c(c(Nc4ccc(C(F)(F)F)cc4)n2)CCN(c2ncccc2C(F)(F)F)CC3)C1 (stereo not drawn),239
8,CN1CCCC(N(C)c2nc3c(c(Nc4ccc(C(F)(F)F)cc4)n2)CCN(c2ncccc2C(F)(F)F)CC3)C1 (stereo not drawn),> 5000
9,FC(F)(F)c1ccc(Nc2nc(N3CCN(C4CCC4)CC3)nc3c2CCN(c2ncccc2C(F)(F)F)CC3)cc1,161
10,FC(F)(F)c1ccc(Nc2nc(NCc3ccccn3)nc3c2CCN(c2ncccc2C(F)(F)F)CC3)cc1,1340
11,FC(F)(F)c1ccc(Nc2nc(N3CCN(C4CCCC4)CC3)nc3c2CCN(c2ncccc2C(F)(F)F)CC3)cc1,123
12,CC(C)(C)OC(=O)N1CCCCC1CNc1nc2c(c(Nc3ccc(C(F)(F)F)cc3)n1)CCN(c1ncccc1C(F)(F)F)CC2 (stereo not drawn),230
13,FC(F)(F)c1ccc(Nc2nc(N3CCNCC3)nc3c2CCN(c2ncccc2C(F)(F)F)CC3)cc1,> 5000
14,CCN1CCN(c2nc3c(c(Nc4ccc(C(F)(F)F)cc4)n2)CCN(c2ncccc2C(F)(F)F)CC3)CC1,506
15,CC(=O)N(C)C1CCN(c2nc3c(c(Nc4ccc(C(F)(F)F)cc4)n2)CCN(c2ncccc2C(F)(F)F)CC3)C1 (stereo not drawn),460
16,CN(C)[C@@H]1CCN(c2nc3c(c(Nc4ccc(C(F)(F)F)cc4)n2)CCN(c2ncccc2C(F)(F)F)CC3)C1,1040

# Biological target: Transient receptor potential cation channel subfamily V member 1 (Homo sapiens, UniProt Q8NER1)
# Sequence (Q8NER1 whole entry): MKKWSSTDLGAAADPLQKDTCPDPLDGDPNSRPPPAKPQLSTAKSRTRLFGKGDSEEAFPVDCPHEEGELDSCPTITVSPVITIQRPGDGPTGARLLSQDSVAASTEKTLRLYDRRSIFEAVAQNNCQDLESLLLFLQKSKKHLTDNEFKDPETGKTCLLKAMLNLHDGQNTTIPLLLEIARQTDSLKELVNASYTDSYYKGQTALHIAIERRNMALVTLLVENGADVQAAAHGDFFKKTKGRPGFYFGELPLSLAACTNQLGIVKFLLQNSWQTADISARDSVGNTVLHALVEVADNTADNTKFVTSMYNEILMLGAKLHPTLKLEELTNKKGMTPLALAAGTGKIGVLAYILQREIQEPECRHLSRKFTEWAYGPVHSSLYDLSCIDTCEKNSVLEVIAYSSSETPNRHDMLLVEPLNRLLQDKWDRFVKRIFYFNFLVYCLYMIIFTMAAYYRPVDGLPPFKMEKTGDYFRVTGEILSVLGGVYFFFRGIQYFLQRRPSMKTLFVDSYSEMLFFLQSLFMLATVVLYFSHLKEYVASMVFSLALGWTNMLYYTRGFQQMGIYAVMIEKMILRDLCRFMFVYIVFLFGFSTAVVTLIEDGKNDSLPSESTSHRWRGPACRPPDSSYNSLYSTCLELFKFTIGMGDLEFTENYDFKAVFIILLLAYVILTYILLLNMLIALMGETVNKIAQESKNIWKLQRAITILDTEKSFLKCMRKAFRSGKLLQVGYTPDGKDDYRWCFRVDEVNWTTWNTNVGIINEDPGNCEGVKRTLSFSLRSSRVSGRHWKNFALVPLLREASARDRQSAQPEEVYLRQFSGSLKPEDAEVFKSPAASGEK
# Assay: Antagonist activity at human TRPV1 expressed in HEK293 cells assessed as inhibition of capsaicin-induced intracellular Ca2+ level by FLIPR assay
# Type: functional, cell-based
row,Compound,IC50 [nM]
1,CN1CCCC(Nc2nc3c(c(Nc4ccc(C(F)(F)F)cc4)n2)CCN(c2ncccc2C(F)(F)F)CC3)C1 (stereo not drawn),3080
2,CN(c1nc2c(c(Nc3ccc(C(F)(F)F)cc3)n1)CCN(c1ncccc1C(F)(F)F)CC2)C1CCCN(C(=O)OC(C)(C)C)C1 (stereo not drawn),53
3,CCC(CC)N1CCN(c2nc3c(c(Nc4ccc(C(F)(F)F)cc4)n2)CCN(c2ncccc2C(F)(F)F)CC3)CC1,41
4,CC(=O)NC1CCN(c2nc3c(c(Nc4ccc(C(F)(F)F)cc4)n2)CCN(c2ncccc2C(F)(F)F)CC3)C1 (stereo not drawn),150
5,OCCN1CCN(c2nc3c(c(Nc4ccc(C(F)(F)F)cc4)n2)CCN(c2ncccc2C(F)(F)F)CC3)CC1,498
6,FC(F)(F)c1ccc(Nc2nc(NCC3CCCCN3)nc3c2CCN(c2ncccc2C(F)(F)F)CC3)cc1 (stereo not drawn),100
7,CC(C)(C)OC(=O)N1CCCC(Nc2nc3c(c(Nc4ccc(C(F)(F)F)cc4)n2)CCN(c2ncccc2C(F)(F)F)CC3)C1 (stereo not drawn),140
8,CN1CCCC(N(C)c2nc3c(c(Nc4ccc(C(F)(F)F)cc4)n2)CCN(c2ncccc2C(F)(F)F)CC3)C1 (stereo not drawn),> 5000
9,FC(F)(F)c1ccc(Nc2nc(N3CCN(C4CCC4)CC3)nc3c2CCN(c2ncccc2C(F)(F)F)CC3)cc1,24
10,FC(F)(F)c1ccc(Nc2nc(NCc3ccccn3)nc3c2CCN(c2ncccc2C(F)(F)F)CC3)cc1,476
11,FC(F)(F)c1ccc(Nc2nc(N3CCN(C4CCCC4)CC3)nc3c2CCN(c2ncccc2C(F)(F)F)CC3)cc1,15
12,CC(C)(C)OC(=O)N1CCCCC1CNc1nc2c(c(Nc3ccc(C(F)(F)F)cc3)n1)CCN(c1ncccc1C(F)(F)F)CC2 (stereo not drawn),250
13,CCN1CCN(c2nc3c(c(Nc4ccc(C(F)(F)F)cc4)n2)CCN(c2ncccc2C(F)(F)F)CC3)CC1,132
14,CC(=O)N(C)C1CCN(c2nc3c(c(Nc4ccc(C(F)(F)F)cc4)n2)CCN(c2ncccc2C(F)(F)F)CC3)C1 (stereo not drawn),62
15,CN(C)[C@@H]1CCN(c2nc3c(c(Nc4ccc(C(F)(F)F)cc4)n2)CCN(c2ncccc2C(F)(F)F)CC3)C1,243

# System: not listed separately
# Assay: Aqueous equilibrium solubility of compound in simulated intestinal fluid at pH 6.8
# Type: physicochemical
row,Compound,solubility thermodynamic [µg/mL]
1,CN1CCCC(Nc2nc3c(c(Nc4ccc(C(F)(F)F)cc4)n2)CCN(c2ncccc2C(F)(F)F)CC3)C1 (stereo not drawn),226
2,CN(c1nc2c(c(Nc3ccc(C(F)(F)F)cc3)n1)CCN(c1ncccc1C(F)(F)F)CC2)C1CCCN(C(=O)OC(C)(C)C)C1 (stereo not drawn),4
3,CCC(CC)N1CCN(c2nc3c(c(Nc4ccc(C(F)(F)F)cc4)n2)CCN(c2ncccc2C(F)(F)F)CC3)CC1,109
4,CC(=O)NC1CCN(c2nc3c(c(Nc4ccc(C(F)(F)F)cc4)n2)CCN(c2ncccc2C(F)(F)F)CC3)C1 (stereo not drawn),19
5,OCCN1CCN(c2nc3c(c(Nc4ccc(C(F)(F)F)cc4)n2)CCN(c2ncccc2C(F)(F)F)CC3)CC1,4
6,FC(F)(F)c1ccc(Nc2nc(NCC3CCCCN3)nc3c2CCN(c2ncccc2C(F)(F)F)CC3)cc1 (stereo not drawn),237
7,CC(C)(C)OC(=O)N1CCCC(Nc2nc3c(c(Nc4ccc(C(F)(F)F)cc4)n2)CCN(c2ncccc2C(F)(F)F)CC3)C1 (stereo not drawn),14
8,CN1CCCC(N(C)c2nc3c(c(Nc4ccc(C(F)(F)F)cc4)n2)CCN(c2ncccc2C(F)(F)F)CC3)C1 (stereo not drawn),> 232
9,FC(F)(F)c1ccc(Nc2nc(N3CCN(C4CCC4)CC3)nc3c2CCN(c2ncccc2C(F)(F)F)CC3)cc1,2
10,FC(F)(F)c1ccc(Nc2nc(NCc3ccccn3)nc3c2CCN(c2ncccc2C(F)(F)F)CC3)cc1,1
11,FC(F)(F)c1ccc(Nc2nc(N3CCN(C4CCCC4)CC3)nc3c2CCN(c2ncccc2C(F)(F)F)CC3)cc1,11
12,CC(C)(C)OC(=O)N1CCCCC1CNc1nc2c(c(Nc3ccc(C(F)(F)F)cc3)n1)CCN(c1ncccc1C(F)(F)F)CC2 (stereo not drawn),3
13,FC(F)(F)c1ccc(Nc2nc(N3CCNCC3)nc3c2CCN(c2ncccc2C(F)(F)F)CC3)cc1,158
14,CCN1CCN(c2nc3c(c(Nc4ccc(C(F)(F)F)cc4)n2)CCN(c2ncccc2C(F)(F)F)CC3)CC1,6
15,CC(=O)N(C)C1CCN(c2nc3c(c(Nc4ccc(C(F)(F)F)cc4)n2)CCN(c2ncccc2C(F)(F)F)CC3)C1 (stereo not drawn),2
16,CN(C)[C@@H]1CCN(c2nc3c(c(Nc4ccc(C(F)(F)F)cc4)n2)CCN(c2ncccc2C(F)(F)F)CC3)C1,57

# System: not listed separately
# Assay: Aqueous equilibrium solubility of compound in phosphate buffer at pH 2
# Type: physicochemical
row,Compound,solubility thermodynamic [µg/mL]
1,CN1CCCC(Nc2nc3c(c(Nc4ccc(C(F)(F)F)cc4)n2)CCN(c2ncccc2C(F)(F)F)CC3)C1 (stereo not drawn),204
2,CN(c1nc2c(c(Nc3ccc(C(F)(F)F)cc3)n1)CCN(c1ncccc1C(F)(F)F)CC2)C1CCCN(C(=O)OC(C)(C)C)C1 (stereo not drawn),1
3,CCC(CC)N1CCN(c2nc3c(c(Nc4ccc(C(F)(F)F)cc4)n2)CCN(c2ncccc2C(F)(F)F)CC3)CC1,243
4,CC(=O)NC1CCN(c2nc3c(c(Nc4ccc(C(F)(F)F)cc4)n2)CCN(c2ncccc2C(F)(F)F)CC3)C1 (stereo not drawn),202
5,OCCN1CCN(c2nc3c(c(Nc4ccc(C(F)(F)F)cc4)n2)CCN(c2ncccc2C(F)(F)F)CC3)CC1,> 233
6,FC(F)(F)c1ccc(Nc2nc(NCC3CCCCN3)nc3c2CCN(c2ncccc2C(F)(F)F)CC3)cc1 (stereo not drawn),> 272
7,CC(C)(C)OC(=O)N1CCCC(Nc2nc3c(c(Nc4ccc(C(F)(F)F)cc4)n2)CCN(c2ncccc2C(F)(F)F)CC3)C1 (stereo not drawn),1
8,CN1CCCC(N(C)c2nc3c(c(Nc4ccc(C(F)(F)F)cc4)n2)CCN(c2ncccc2C(F)(F)F)CC3)C1 (stereo not drawn),> 232
9,FC(F)(F)c1ccc(Nc2nc(N3CCN(C4CCC4)CC3)nc3c2CCN(c2ncccc2C(F)(F)F)CC3)cc1,> 237
10,FC(F)(F)c1ccc(Nc2nc(NCc3ccccn3)nc3c2CCN(c2ncccc2C(F)(F)F)CC3)cc1,224
11,FC(F)(F)c1ccc(Nc2nc(N3CCN(C4CCCC4)CC3)nc3c2CCN(c2ncccc2C(F)(F)F)CC3)cc1,221
12,CC(C)(C)OC(=O)N1CCCCC1CNc1nc2c(c(Nc3ccc(C(F)(F)F)cc3)n1)CCN(c1ncccc1C(F)(F)F)CC2 (stereo not drawn),3
13,FC(F)(F)c1ccc(Nc2nc(N3CCNCC3)nc3c2CCN(c2ncccc2C(F)(F)F)CC3)cc1,215
14,CCN1CCN(c2nc3c(c(Nc4ccc(C(F)(F)F)cc4)n2)CCN(c2ncccc2C(F)(F)F)CC3)CC1,> 226
15,CC(=O)N(C)C1CCN(c2nc3c(c(Nc4ccc(C(F)(F)F)cc4)n2)CCN(c2ncccc2C(F)(F)F)CC3)C1 (stereo not drawn),21
16,CN(C)[C@@H]1CCN(c2nc3c(c(Nc4ccc(C(F)(F)F)cc4)n2)CCN(c2ncccc2C(F)(F)F)CC3)C1,> 226
